Usually Kd stands for the constant that tells how readily two partners part at equilibrium. High values mean lower affinity, low ones higher affinity.

The test has as its target T1, AdgB (Variovorax paradoxus, UniProt T1X8R6).
T1 sequence (T1X8R6 28-388 limits assumed): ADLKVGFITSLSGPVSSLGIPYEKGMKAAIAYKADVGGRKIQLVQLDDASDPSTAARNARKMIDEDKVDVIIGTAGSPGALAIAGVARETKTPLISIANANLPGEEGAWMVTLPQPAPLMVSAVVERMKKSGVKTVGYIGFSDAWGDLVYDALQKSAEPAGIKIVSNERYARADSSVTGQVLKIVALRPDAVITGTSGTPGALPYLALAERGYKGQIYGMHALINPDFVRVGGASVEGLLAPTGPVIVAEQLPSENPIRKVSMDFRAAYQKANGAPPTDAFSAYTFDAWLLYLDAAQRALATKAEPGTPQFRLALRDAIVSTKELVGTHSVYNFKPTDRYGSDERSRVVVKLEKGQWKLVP
Briefly: isothermal titration calorimetry. The class given is binding. In general terms: In ITC the heat of successive injections is recorded.
`O=C(O)Cc1c[nH]c2cccc(Cl)c12` [4-Cl-IAA] registered a Kd of 8.4 µM. With `O=C(O)CCCc1c[nH]c2ccccc12` [IBA] the figure was 25 µM; with `O=C(O)CCc1c[nH]c2ccccc12` [IPA], 1.6 µM. `O=C(O)Cc1cccc2ccccc12` [NAA]: the Kd is 20 µM.
